In the experiment the target is T1, hGPR120 (Homo sapiens, UniProt Q5NUL3).
T1 construct: expressed in transfected cells; host or cells: CHO-K1
T1 sequence (Q5NUL3 1-361): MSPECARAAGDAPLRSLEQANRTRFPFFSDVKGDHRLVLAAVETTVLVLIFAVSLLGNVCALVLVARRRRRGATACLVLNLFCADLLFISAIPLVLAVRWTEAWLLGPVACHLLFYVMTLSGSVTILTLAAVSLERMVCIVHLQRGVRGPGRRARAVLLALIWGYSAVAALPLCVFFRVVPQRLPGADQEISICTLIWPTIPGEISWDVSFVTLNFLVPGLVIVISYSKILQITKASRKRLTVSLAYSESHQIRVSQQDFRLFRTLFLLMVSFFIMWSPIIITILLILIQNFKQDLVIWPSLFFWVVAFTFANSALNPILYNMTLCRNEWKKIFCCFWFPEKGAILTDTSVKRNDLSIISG
The experiment can be described thus: Measurement of Activity of GPR120 Agonist (Cell-Based Assay), Calcium 5 dye fluorescence. As to conditions: CHO-K1 cells expressing Ga16 and hGPR120. The method in brief:
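After an 18 h incubation at 37 °C, the transfected CHO-K1 cells (Gα16, hGPR120) received Calcium 5 dye for 1 h; compound dilutions in 0.5% DMSO were then injected and emission at 525 nm recorded, with values given as % of the vehicle response.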

On to `O=C(O)CC1CCN(c2c(F)cc(-c3cncc(NC4CCCC4)n3)cc2F)C1` (centres unmarked) [Example 504, 2-{1-[2,6-difluoro-4-(6-cyclopentylamino-pyrazin-2-yl)phenyl]pyrrolidin-3-yl}acetic acid], for which the concentration for a half-maximal effect (EC50) was in the range of 0.2 to 2 µM. `CCCOc1cccc(-c2cc(F)c(N3CCC(CC(=O)O)CC3)c(F)c2)c1OCCC` [Example 458, 2-[1-[4-(2,3-dipropoxyphenyl)-2,6-difluoro-phenyl]-4-piperidyl]acetic acid]: the concentration giving a half-maximal response (EC50) was in the range of 0.2 to 2 µM. The value for `Cc1cc(OCC2CC2)nc(-c2cc(F)c(N3CCC(CC(=O)O)C3)c(F)c2)n1` (centres unmarked) [Example 576, {1-[4-(4-cyclopropylmethoxy-6-methyl-pyrimidin-2-yl)-2,6-difluoro-phenyl]-pyrrolidin-3-yl}-acetic acid] was less than 0.2 µM. In the case of `CN(CCCC(=O)O)c1c(F)cc(-c2cccc(OCC3CCC3)c2)cc1F` [Example 520, 4-[(3′-cyclobutylmethoxy-3,5-difluoro-biphenyl-4-yl)-methyl-amino]-butyric acid], the EC50 lay in the range of 0.2 to 2 µM. Consider `CCCCOc1cncc(-c2cc(F)c(N3CCC(CC(=O)O)CC3)c(F)c2)n1` [Example 343, 2-[1-[4-(6-butoxypyrazin-2-yl)-2,6-difluoro-phenyl]-4-piperidyl]acetic acid], for which the 50% effective concentration (EC50) was less than 0.2 µM.

For `CC(C)Sc1ncccc1-c1cc(F)c(-n2cc(CC(=O)O)cn2)c(F)c1` [Example 122, 2-[1-[2,6-difluoro-4-(2-isopropylsulfanyl-3-pyridyl)phenyl]pyrazol-4-yl]acetic acid], the EC50 was in the range of 2 to 20 µM. As to `O=C(O)CCCCc1c(F)cc(-c2cccc3c2OC(F)(F)O3)cc1F` [Example 34, 5-[4-(2,2-difluoro-benzo[1,3]dioxol-4-yl)-2,6-difluoro-phenyl]pentanoic acid], the EC50 is less than 0.2 µM.

Turning to `O=C(O)CC1CCN(c2c(F)cc(-c3csc(OC4CCC4)n3)cc2F)CC1` [Example 326, 2-[1-[4-[2-(cyclobutoxy)thiazol-4-yl]-2,6-difluoro-phenyl]-4-piperidyl]acetic acid], the EC50 lay within 0.2 to 2 µM. `O=C(O)CCCCNc1c(F)cc(-c2cccnc2OC2CCCC2)cc1F` [Example 94, 5-[4-[2-(cyclopentoxy)-3-pyridyl]-2,6-difluoro-anilino]pentanoic acid]: the EC50 is less than 0.2 µM. The value for `CC(C)Sc1ncccc1-c1cc(F)c(C(C)CCCC(=O)O)c(F)c1` (centres unmarked) [Example 50, 5-[2,6-difluoro-4-(2-isopropylsulfanyl-3-pyridyl)-phenyl]hexanoic acid] was less than 0.2 µM; that for `CCCCc1cncc(-c2cc(F)c(N3CCC(CC(=O)O)CC3)c(F)c2)n1` [Example 369, 2-[1-[4-(6-butylpyrazin-2-yl)-2,6-difluoro-phenyl]-4-piperidyl]acetic acid] was less than 0.2 µM.

As for `CC(C)Oc1ncccc1-c1ccc2cc(CCC(=O)O)ccc2c1` [Example 149, 3-[6-(2-isopropoxy-pyridin-3-yl)-naphthalen-2-yl]-propanoic acid], the EC50 is less than 0.2 µM.

With `COc1ccc(-c2ccc3c(c2)CCC(CCC(=O)O)O3)c2c1OC(C)(C)C2` (centres unmarked) [Example 273, 3-[6-(7-methoxy-2,2-dimethyl-2,3-dihydro-benzofuran-4-yl)-chroman-2-yl]-propionic acid], the 50% effective concentration (EC50) was 2 to 20 µM.

On to `COc1ncccc1-c1cc(F)c(N(C)CCCC(=O)O)c(F)c1` [Example 219, 4-{[2,6-difluoro-4-(2-methoxy-pyridin-3-yl)-phenyl]-methyl-amino}-butyric acid], for which the EC50 lay within 2 to 20 µM. The value for `O=C(O)CCCOc1c(F)cc(-c2ccc(F)c(OCC3CC3)c2)cc1Cl` [Example 408, 4-(5-chloro-3′-cyclopropylmethoxy-3,4′-difluoro-biphenyl-4-yloxy)-butyric acid] was less than 0.2 µM; that for `O=C(O)CCCC(F)(F)c1ccc(-c2cccnc2OCC2CC2)cc1` [Example 181, 5-[4-(2-cyclopropylmethoxy-pyridin-3-yl)-phenyl]-5,5-difluoro-pentanoic acid] was less than 0.2 µM; that for `Oc1cc(COc2c(F)cc(-c3cccnc3OCC3CCC3)cc2F)on1` [Example 77, 5-[[4-[2-(cyclobutylmethoxy)-3-pyridyl]-2,6-difluoro-phenoxy]methyl]isoxazol-3-ol] was less than 0.2 µM. The value for `O=C(O)CCCOc1c(F)cc(-c2ccnc(OC3CCC3)n2)cc1Cl` [Example 423, 4-[2-chloro-4-(2-cyclobutoxy-pyrimidin-4-yl)-6-fluoro-phenoxy]-butyric acid] was less than 0.2 µM; that for `O=C(O)CCCOc1c(F)cc(-c2nccc(OCC3CC3)n2)cc1Cl` [Example 428, 4-[2-chloro-4-(4-cyclopropylmethoxy-pyrimidin-2-yl)-6-fluoro-phenoxy]-butyric acid] was less than 0.2 µM. Take `CN(CCCC(=O)O)c1c(F)cc(-c2ccc(COCC3CC3)o2)cc1F` [Example 473, 4-[4-[5-(cyclopropylmethoxymethyl)-2-furyl]-2,6-difluoro-N-methyl-anilino]butanoic acid]: the half-maximal effective concentration (EC50) lay within 0.2 to 2 µM. `CC(C)Oc1cccc(-c2ccc3cc(CCC(=O)O)ccc3c2)c1` [Example 146, 3-[6-(3-isopropoxy-phenyl)-naphthalen-2-yl]-propanoic acid]: the concentration for a half-maximal effect (EC50) is 0.2 to 2 µM.

On to `O=C(O)CCCOc1c(F)cc(-n2ccc3ccc(Cl)cc32)cc1F` [Example 463, 4-[4-(6-chloroindol-1-yl)-2,6-difluoro-phenoxy]butanoic acid], for which the EC50 is less than 0.2 µM. For `CC(C)Oc1cccc(-c2cc(F)c(OCCCC(=O)O)c(F)c2)c1` [Example 18, 4-(3,5-difluoro-3′-isopropoxy-biphenyl-4-yloxy)-butyric acid], the EC50 was less than 0.2 µM. On to `O=C(O)CCCOc1c(F)cc(-c2cccc(OC3CCC3)c2)cc1F` [Example 21, 4-(3′-cyclobutoxy-3,5-difluoro-biphenyl-4-yloxy)-butyric acid], for which the EC50 was less than 0.2 µM. The value for `CC(CCCC(=O)O)c1c(F)cc(-c2cccnc2OC2CCC2)cc1F` (centres unmarked) [Example 59, 5-[4-(2-cyclobutoxy-3-pyridyl)-2,6-difluoro-phenyl]hexanoic acid] was less than 0.2 µM; that for `O=C(O)CCCOc1c(F)cc(-c2ccc3cc[nH]c3c2)cc1F` [Example 557, 4-[2,6-difluoro-4-(1H-indol-6-yl)-phenoxy]-butanoic acid] was 2 to 20 µM. The value for `CN(CCCC(=O)O)c1c(F)cc(-c2cccc3c2OC2(CCCC2)C3)cc1F` [Example 263, 4-(2,6-difluoro-N-methyl-4-spiro[3H-benzofuran-2,1′-cyclopentan]-7-yl-anilino)-butyric acid] was less than 0.2 µM. For the molecule `CC1(C)Cc2cc(Cl)cc(-c3ccc4c(c3)CCC(CCC(=O)O)S4)c2O1` (centres unmarked) [Example 282, 3-[6-(5-chloro-2,2-dimethyl-2,3-dihydro-benzofuran-7-yl)-thiochroman-2-yl]-propionic acid], the concentration giving a half-maximal response (EC50) lay in the range of 0.2 to 2 µM. Regarding `O=C(O)CCCOc1c(F)cc(-c2cccc(OCC3CC3)c2)cc1Cl` [Example 406, 4-(5-chloro-3′-cyclopropylmethoxy-3-fluoro-biphenyl-4-yloxy)-butyric acid], the concentration for a half-maximal effect (EC50) was less than 0.2 µM. `COc1ccc(-c2cc(F)c(OCCCC(=O)O)c(F)c2)nc1OCC1CC1` [Example 459, 4-[4-[6-(cyclopropylmethoxy)-5-methoxy-2-pyridyl]-2,6-difluoro-phenoxy]butanoic acid]: the EC50 is less than 0.2 µM. As for `Cc1cc(OC2CCC2)nc(-c2cc(F)c(OCCCC(=O)O)c(Cl)c2)n1` [Example 391, 4-[2-chloro-4-[4-(cyclobutoxy)-6-methyl-pyrimidin-2-yl]-6-fluoro-phenoxy]butanoic acid], the EC50 was less than 0.2 µM. In the case of `CC(C)Oc1ncccc1-c1ccc(C(C)(C)CCCC(=O)O)cc1` [Example 158, 5-[4-(2-isopropoxy-pyridin-3-yl)-phenyl]-5-methyl-hexanoic acid], the concentration giving a half-maximal response (EC50) is 0.2 to 2 µM. For `Cc1cc(Oc2cccc(C(F)(F)F)c2)nc(-c2cc(F)c(N3CCC(CC(=O)O)CC3)c(F)c2)n1` [Example 613, 2-[1-[2,6-difluoro-4-[4-methyl-6-[3-(trifluoromethyl)phenoxy]pyrimidin-2-yl]phenyl]-4-piperidyl]acetic acid], the EC50 was in the range of 2 to 20 µM. Take `O=C(O)CCCCc1ccc(-c2cccc(OC3CCC3)n2)cc1F` [Example 537, 5-[4-(6-cyclobutoxy-pyridin-2-yl)-2-fluoro-phenyl]-pentanoic acid]: the 50% effective concentration (EC50) was less than 0.2 µM.

Regarding `CCCSc1ncccc1-c1cc(F)c(C2CC2CCC(=O)O)c(F)c1` (centres unmarked) [Example 179, 3-{2-[2,6-difluoro-4-(2-propylsulfanyl-pyridin-3-yl)-phenyl]-cyclopropyl}-propanoic acid], the EC50 was less than 0.2 µM. The value for `CCOc1csc(-c2cc(F)c(N3CCC(CC(=O)O)CC3)c(F)c2)n1` [Example 367, {1-[4-(4-ethoxy-thiazol-2-yl)-2,6-difluoro-phenyl]-piperidin-4-yl}acetic acid] was 0.2 to 2 µM. `CCCOc1cccc(-c2cc(F)c(N3CCC(CCC(=O)O)CC3)c(F)c2)n1` [Example 620, 3-{1-[2,6-difluoro-4-(6-propoxy-pyridin-2-yl)-phenyl]-piperidin-4-yl}-propionic acid]: the EC50 was 0.2 to 2 µM. As for `CC1(C)Cc2c(cccc2-c2ccc(OCCCC(=O)O)c(F)c2)O1` [Example 194, 4-[4-(2,2-dimethyl-2,3-dihydro-benzofuran-4-yl)-2-fluoro-phenoxy]-butyric acid], the EC50 is less than 0.2 µM.

For the origin of these results see patent US11261186B2, “Biaryl derivative as GPR120 agonist” (LG CHEM, LTD., priority 2014, dated 2022).
